We go through ten compounds from ChEMBL document CHEMBL5442334, “ASAP - In vitro safety pharmacology profile” (2024).

Settings in all cases: Test compound concentration 10.0 uM
Experiment [1] concerns the target T1, Alpha-1A adrenergic receptor (Homo sapiens) (UniProt P35348).
T1 sequence (whole entry): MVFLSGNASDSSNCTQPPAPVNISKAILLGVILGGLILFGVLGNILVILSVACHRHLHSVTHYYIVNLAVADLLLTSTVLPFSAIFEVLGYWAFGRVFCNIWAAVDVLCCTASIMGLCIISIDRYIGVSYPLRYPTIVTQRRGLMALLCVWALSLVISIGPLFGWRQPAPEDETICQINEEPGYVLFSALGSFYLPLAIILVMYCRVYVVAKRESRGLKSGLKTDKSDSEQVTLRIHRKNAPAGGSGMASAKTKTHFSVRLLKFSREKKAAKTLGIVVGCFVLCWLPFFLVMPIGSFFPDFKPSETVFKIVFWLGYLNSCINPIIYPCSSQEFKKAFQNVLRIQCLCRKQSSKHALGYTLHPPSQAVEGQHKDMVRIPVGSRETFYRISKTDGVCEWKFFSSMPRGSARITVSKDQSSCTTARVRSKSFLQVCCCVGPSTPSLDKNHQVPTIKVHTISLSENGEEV
The experiment in a line: SafetyScreen: alpha1A Human Adrenoceptor GPCR Binding Antagonist Radioligand LeadHunter Assay, catalogue number: 2338.

The target of experiment [2] is GABA-A receptor; anion channel (Rattus norvegicus) (UniProt O09028+P15431+P18506+P18508+P19969+P20236+P23574+P23576+P28471+P28473+P30191+P62813+P63079+P63138+Q91ZM7+Q9ES14). Put plainly: SafetyScreen: GABAA (Non-Selective) Rat Ion Channel [3H] Flunitrazepam Binding Agonist Radioligand LeadHunter Assay, catalogue number: 28. Format: protein-complex assay.
In experiment [3] the target is T2, 5-hydroxytryptamine receptor 1A (Homo sapiens) (UniProt P08908).
T2 sequence (whole entry): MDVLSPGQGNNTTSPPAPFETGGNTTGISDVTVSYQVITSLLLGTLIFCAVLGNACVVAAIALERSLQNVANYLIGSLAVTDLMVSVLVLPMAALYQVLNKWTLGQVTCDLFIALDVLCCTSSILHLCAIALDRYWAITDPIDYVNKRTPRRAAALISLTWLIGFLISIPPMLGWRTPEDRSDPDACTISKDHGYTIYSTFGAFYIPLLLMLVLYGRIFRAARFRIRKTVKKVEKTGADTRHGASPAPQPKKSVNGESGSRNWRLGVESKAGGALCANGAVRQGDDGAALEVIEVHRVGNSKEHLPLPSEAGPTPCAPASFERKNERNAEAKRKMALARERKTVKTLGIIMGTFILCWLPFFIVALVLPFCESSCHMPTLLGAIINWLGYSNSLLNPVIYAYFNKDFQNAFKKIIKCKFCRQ
Put plainly: SafetyScreen: 5-HT1A Human Serotonin GPCR Binding Agonist Radioligand LeadHunter Assay, catalogue number: 131.

Experiment [4] has as its target T3, Glucocorticoid receptor (Homo sapiens) (UniProt P04150).
T3 sequence (whole entry): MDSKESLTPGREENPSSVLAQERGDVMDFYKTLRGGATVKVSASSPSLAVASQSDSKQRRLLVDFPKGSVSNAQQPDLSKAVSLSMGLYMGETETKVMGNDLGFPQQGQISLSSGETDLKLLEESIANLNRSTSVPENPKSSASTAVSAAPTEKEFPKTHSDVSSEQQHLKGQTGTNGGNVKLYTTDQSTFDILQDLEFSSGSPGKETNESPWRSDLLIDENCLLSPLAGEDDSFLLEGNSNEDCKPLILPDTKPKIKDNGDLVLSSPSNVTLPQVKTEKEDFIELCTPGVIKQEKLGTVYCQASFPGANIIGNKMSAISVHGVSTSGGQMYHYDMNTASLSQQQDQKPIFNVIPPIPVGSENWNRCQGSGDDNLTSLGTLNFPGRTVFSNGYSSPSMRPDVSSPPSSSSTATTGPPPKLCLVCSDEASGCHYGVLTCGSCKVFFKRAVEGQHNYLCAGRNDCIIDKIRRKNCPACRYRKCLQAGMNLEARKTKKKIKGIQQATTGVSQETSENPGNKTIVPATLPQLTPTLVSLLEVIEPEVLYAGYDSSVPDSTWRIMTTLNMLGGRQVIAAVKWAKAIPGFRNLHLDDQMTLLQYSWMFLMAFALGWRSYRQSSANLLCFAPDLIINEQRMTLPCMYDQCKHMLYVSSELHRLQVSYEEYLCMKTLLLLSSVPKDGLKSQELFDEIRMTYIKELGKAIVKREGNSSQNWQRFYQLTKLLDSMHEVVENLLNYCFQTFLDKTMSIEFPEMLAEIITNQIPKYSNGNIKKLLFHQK
The experiment in a line: SafetyScreen: GR Human Glucocorticoid NHR Binding Agonist Radioligand LeadHunter Assay, catalogue number: 469.

The target of experiment [5] is Sodium-dependent dopamine transporter (Homo sapiens) (UniProt Q01959). The experiment in a line: SafetyScreen: DAT Human Dopamine Transporter Binding Antagonist Radioligand LeadHunter Assay, catalogue number: 52.
Experiment [6] concerns the target T4, Prostaglandin G/H synthase 2 (Homo sapiens) (UniProt P35354).
T4 sequence (whole entry): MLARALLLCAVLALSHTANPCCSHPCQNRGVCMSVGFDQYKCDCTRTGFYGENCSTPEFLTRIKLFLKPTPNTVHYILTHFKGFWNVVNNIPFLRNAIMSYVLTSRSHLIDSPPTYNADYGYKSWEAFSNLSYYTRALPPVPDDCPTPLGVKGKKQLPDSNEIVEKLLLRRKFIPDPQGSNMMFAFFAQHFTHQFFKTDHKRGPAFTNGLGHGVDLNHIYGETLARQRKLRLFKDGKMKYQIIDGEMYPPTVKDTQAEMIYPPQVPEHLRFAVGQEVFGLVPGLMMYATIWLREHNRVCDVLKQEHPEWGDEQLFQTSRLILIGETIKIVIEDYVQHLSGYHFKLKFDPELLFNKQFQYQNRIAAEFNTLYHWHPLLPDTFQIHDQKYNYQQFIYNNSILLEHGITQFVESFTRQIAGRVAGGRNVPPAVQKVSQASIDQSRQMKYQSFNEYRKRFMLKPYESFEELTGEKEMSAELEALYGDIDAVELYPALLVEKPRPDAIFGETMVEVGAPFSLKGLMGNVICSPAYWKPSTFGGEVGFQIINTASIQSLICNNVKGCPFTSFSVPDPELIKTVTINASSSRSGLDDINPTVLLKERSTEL
Put plainly: SafetyScreen: COX2 Human Cyclooxygenase Enzymatic LeadHunter Assay, catalogue number: 4186. Format: functional.

Sodium-dependent dopamine transporter (Homo sapiens), sequence (Q01959 whole entry): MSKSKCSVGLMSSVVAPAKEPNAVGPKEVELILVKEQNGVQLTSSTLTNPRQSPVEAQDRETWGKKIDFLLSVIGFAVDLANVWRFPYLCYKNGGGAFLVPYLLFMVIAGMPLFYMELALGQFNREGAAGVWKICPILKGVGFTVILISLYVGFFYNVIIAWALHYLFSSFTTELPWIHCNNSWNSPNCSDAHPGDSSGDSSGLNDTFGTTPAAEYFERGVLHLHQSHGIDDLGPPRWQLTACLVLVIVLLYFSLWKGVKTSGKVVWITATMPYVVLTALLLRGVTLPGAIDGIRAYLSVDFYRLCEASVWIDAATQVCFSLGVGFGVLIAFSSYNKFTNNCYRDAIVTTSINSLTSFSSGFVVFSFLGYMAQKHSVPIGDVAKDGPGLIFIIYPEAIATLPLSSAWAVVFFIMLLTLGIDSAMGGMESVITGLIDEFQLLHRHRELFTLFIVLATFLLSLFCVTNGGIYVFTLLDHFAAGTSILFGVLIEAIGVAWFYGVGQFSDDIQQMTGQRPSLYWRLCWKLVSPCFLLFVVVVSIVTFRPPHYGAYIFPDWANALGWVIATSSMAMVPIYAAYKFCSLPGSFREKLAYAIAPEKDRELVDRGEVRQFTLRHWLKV

The term inhibition denotes the relative decrease from the control value, in per cent. `CC(C)[C@@H](Nc1ncnc2[nH]c(-c3cnn(C)c3C#N)cc12)c1ccc2c(n1)OCCO2`: the inhibition is 11% in experiment [1]; 8% in experiment [2]; 22% in experiment [3]; 22% in experiment [4]; 30% in experiment [5]; -7% in experiment [6].

For the compound `CNCc1cc(-c2cc3c(N[C@@H](c4ccc5c(c4)S(=O)(=O)CCC5)C(C)C)ncnc3[nH]2)co1`, the inhibition in experiment [1] stood at 50%; in experiment [2] it was 28%; in experiment [3], 6%; in experiment [4], 21%; in experiment [5], 50%; in experiment [6], 24%.

For `COc1ccc([C@H](Cc2nnn[nH]2)NC(=O)c2ncnc3[nH]ccc23)cc1`, the inhibition was -7% in experiment [1]; 0% in experiment [2]; 5% in experiment [3]; 1% in experiment [4]; 7% in experiment [5]; -1% in experiment [6].

On to `Cc1nn(C)cc1-c1cc2c(N[C@H](c3ccc4c(c3)S(=O)(=O)CCC4)C(C)C)ncnc2[nH]1`, for which the inhibition in experiment [1] amounted to 8%; in experiment [2] it was 29%; in experiment [3], 10%; in experiment [4] it was 7%; in experiment [5], 13%; in experiment [6], 23%.

With `CC(C)[C@H](Nc1ncnc2[nH]c(-c3cnn(C)c3C#N)cc12)c1ccc2c(n1)OCCO2`, the inhibition in experiment [1] was 34%; in experiment [2], -2%; in experiment [3], 43%; in experiment [4], 11%; in experiment [5] it was 29%; in experiment [6] it was -2%.

Consider `C[C@H](C(=O)O)[C@@H](NC(=O)c1ncnc2[nH]ccc12)c1ccc(Br)cc1`, for which the inhibition is -8% in experiment [1]; -4% in experiment [2]; 2% in experiment [3]; 3% in experiment [4]; 4% in experiment [5]; 7% in experiment [6].

Regarding `Cn1ncc(-c2cc3c(N[C@@H](c4ccc5c(n4)OCCO5)C(C)(C)C)ncnc3[nH]2)c1C#N`, the inhibition in experiment [1] was 54%; in experiment [2] it was -5%; in experiment [3], 15%; in experiment [4], 28%; in experiment [5] it was 50%; in experiment [6], -9%.

As for `CC(C)[C@@H](Nc1ncnc2[nH]c(C(=O)N[C@@H]3CCN(C)C3)cc12)c1ccc2c(c1)S(=O)(=O)CCC2`, the inhibition in experiment [1] came out at 38%; in experiment [2], 38%; in experiment [3], 14%; in experiment [4], 11%; in experiment [5], 22%; in experiment [6], 4%.

Regarding `CNC(=O)Cn1cc(-c2cc3c(N[C@@H](c4ccc5c(c4)S(=O)(=O)CCC5)C(C)C)ncnc3[nH]2)cn1`, the inhibition in experiment [1] was determined as 11%; in experiment [2], 35%; in experiment [3], 13%; in experiment [4], 5%; in experiment [5], 1%; in experiment [6] it was 27%.

Take `CC(C)[C@H](Nc1ncnc2[nH]ccc12)c1ccc2c(c1)S(=O)(=O)CCC2`: the inhibition in experiment [1] was -2%; in experiment [2] it was 4%; in experiment [3] it was 12%; in experiment [4], 10%; in experiment [5], 27%; in experiment [6], 23%.
